Results reported in the NIST ThermoML archive (doi:10.1016/j.fluid.2014.01.038).
± gives the expanded uncertainty stated by the source.

Assay: mn = molality of the nth substance listed, in mol/kg
Details: 288.15 K, 101 kPa, Liquid, Pycnometric method

## CC(C)C[C@H](NC(=O)CN)C(=O)O [glycyl-L-leucine] + O
m1 = 0.03301
  mass density: 1000.8 ± 20 kg/m3
m1 = 0.04936
  mass density: 1001.65 ± 20 kg/m3
m1 = 0.05894
  mass density: 1002.14 ± 20 kg/m3
m1 = 0.06889
  mass density: 1002.67 ± 20 kg/m3
m1 = 0.07838
  mass density: 1003.17 ± 20 kg/m3
m1 = 0.08821
  mass density: 1003.69 ± 20 kg/m3
m1 = 0.09745
  mass density: 1004.12 ± 20 kg/m3

## CC(C)[C@H](NC(=O)CN)C(=O)O [glycyl-L-valine] + O
m1 = 0.04051
  mass density: 1001.29 ± 20 kg/m3
m1 = 0.08097
  mass density: 1003.45 ± 20 kg/m3
m1 = 0.1203
  mass density: 1005.55 ± 20 kg/m3
m1 = 0.1403
  mass density: 1006.63 ± 20 kg/m3
m1 = 0.1594
  mass density: 1007.68 ± 20 kg/m3
m1 = 0.1799
  mass density: 1008.79 ± 20 kg/m3
m1 = 0.1995
  mass density: 1009.84 ± 20 kg/m3

## NCC(=O)NCC(=O)O [glycylglycine] + O
m1 = 0.06148
  mass density: 1002.65 ± 20 kg/m3
m1 = 0.09135
  mass density: 1004.36 ± 20 kg/m3
m1 = 0.1538
  mass density: 1007.96 ± 20 kg/m3
m1 = 0.1823
  mass density: 1009.6 ± 20 kg/m3
m1 = 0.2128
  mass density: 1011.36 ± 20 kg/m3
m1 = 0.2534
  mass density: 1013.73 ± 20 kg/m3
m1 = 0.3028
  mass density: 1016.61 ± 20 kg/m3
